Tested on: MKN45 cells
Assay: ALA-PDT using LNP under 980-nm NIR irradiation (MTT viability)
Type: cell-based, Human
Experimental: MKN45 cells were irradiated with NIR in the presence of ALA and LNP to confirm whether cell death occurred.
A medium in a 10-cm dish containing MKN45 cells cultured in a liquid medium (RPMI-1640, FBS(+), and PSN(+)) was aspirated, and the cells were washed with 3 ml of a PBS solution. 1 ml of trypsin was added thereto, and the mixture was incubated (37° C. and 5% CO2) for 5 minutes. The enzymatic reaction of trypsin was terminated by the addition of 5 ml of a fresh medium. A total of 6 ml of the reaction mixture was centrifuged at 1100 rpm for 5 minutes. In this procedure, 10 μl of the sample was mixed with a dye trypan blue, which dyes dead cells. The number of cells was counted using a hemacytometer. After the centrifugation, the supernatant was aspirated, and 2 ml of a fresh medium was added to the cells. The resulting cells were inoculated at a concentration of 100 μl/well (2×10^4 cells/well) to a 96-well plate for ALA concentrations 1000, 100, 10, and 0 μM and a blank. LNP(+) and LNP(−) series were prepared per sample, and these samples were divided into two different plates for NIR(+) and NIR(−). After overnight culture, the medium in each well was discarded. 100 μl of a fresh medium (containing 2.5 mg/ml LNP for the LNP(+) series) and 0.2 M ALA adjusted to the concentrations mentioned above were added to each well of the plates. After incubation for 4 hours, each plate was irradiated from 50 mm above with 980-nm NIR (400 mA) for 3 min/well. After overnight culture, the medium in each well was discarded, and the cells were washed with 100 μl of a PBS solution. 100 μl of a fresh medium and 10 μl of an MTT methanol solution diluted 10-fold with PBS were added to each well. After incubation for 4 hours, 10% SDS was added thereto at a concentration of 100 μl/well, and the mixture was incubated overnight. The absorbance was measured at 570 nm to 660 nm.
ALA-PDT was performed using commercially available LNP in the same way as in Example 4 except that the concentration of MKN45 cells was changed to 2×10^4 cells/well; the ALA concentrations were changed to 2000, 1000, 100, 10, and 0 μM; the culture time after addition of ALA was changed from 4 hours to 24 hours; and the NIR irradiation time was changed to 90 min/well.
ALA-PDT was performed using synthetic LNP in the same way as in Example 5 except that: the concentration of the synthetic LNP prepared in Example 6 was set to 2 mg/mL; and the ALA concentrations were changed to 2000, 1500, 1000, 100, and 0 μM.

## NCC(=O)CCC(=O)O [ALA, 5-aminolevulinic acid]
Example 4, FIG. 4, LNP(−),NIR(+), ALA 0-1000 μM, 4 h, 980-nm NIR 3 min/well
  cell viability: slight reduction in viability was confirmed
Example 4, FIG. 4, no NIR irradiation, ALA 0-1000 μM, 4 h, LNP(+) series 2.5 mg/ml and LNP(−) series
  cell viability: no change was observed in cell viability
Example 5, FIG. 5, LNP(−),NIR(+), ALA 0-2000 μM, 24 h, NIR 90 min/well
  cell viability: no change was confirmed in cell viability
Example 5, FIG. 5, no NIR irradiation, ALA 0-2000 μM, 24 h
  cell viability: no change was confirmed in cell viability

— US9757357B2, “Photodynamic therapy or diagnostic agent, using infrared-spectrum light” (Tokyo Institute of Technology, priority 2011, dated 2017)
